{"source": "paper PMC2997425", "about": "“Acetazolamide-based fungal chitinase inhibitors” (Bioorganic & Medicinal Chemistry, 2010)", "key": {"AfChiA1": {"target": "AfChiA1 (Aspergillus fumigatus, UniProt Q873Y0)", "sequence (Q873Y0 29-335)": "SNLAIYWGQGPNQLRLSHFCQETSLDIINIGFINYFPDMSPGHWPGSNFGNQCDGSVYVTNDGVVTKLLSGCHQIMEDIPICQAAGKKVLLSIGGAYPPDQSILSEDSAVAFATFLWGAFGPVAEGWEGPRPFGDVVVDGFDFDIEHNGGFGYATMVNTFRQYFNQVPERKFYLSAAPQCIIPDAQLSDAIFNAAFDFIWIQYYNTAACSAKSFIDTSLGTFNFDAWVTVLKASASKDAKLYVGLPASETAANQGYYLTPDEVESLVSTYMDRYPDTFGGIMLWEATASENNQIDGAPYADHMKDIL", "assay": "biochemical", "type": "biochemical", "conditions": "for inhibition at 1000 µM: read-out: % inhibition at 1 mM"}, "hCHT (human chitinase)": {"target": "hCHT (human chitinase) (Homo sapiens, UniProt Q13231)", "sequence (Q13231 22-466)": "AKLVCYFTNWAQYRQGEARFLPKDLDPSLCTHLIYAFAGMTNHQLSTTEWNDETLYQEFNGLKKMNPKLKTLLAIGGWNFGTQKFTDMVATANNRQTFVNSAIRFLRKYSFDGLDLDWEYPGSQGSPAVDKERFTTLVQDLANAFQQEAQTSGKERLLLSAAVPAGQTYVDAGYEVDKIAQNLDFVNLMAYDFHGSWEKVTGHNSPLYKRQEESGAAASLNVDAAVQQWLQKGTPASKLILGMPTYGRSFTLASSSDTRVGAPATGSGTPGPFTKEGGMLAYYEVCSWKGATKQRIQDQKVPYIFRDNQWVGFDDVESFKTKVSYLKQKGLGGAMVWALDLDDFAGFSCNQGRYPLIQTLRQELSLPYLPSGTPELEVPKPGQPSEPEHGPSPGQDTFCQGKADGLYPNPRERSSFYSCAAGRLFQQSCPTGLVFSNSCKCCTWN", "assay": "hCHT (human chitinase) inhibition", "type": "biochemical"}, "hevamine": {"target": "hevamine", "set-up": "method as in PMID 10922481", "conditions": "read-out: Ki against hevamine; cited from earlier work"}, "[1]": {"conditions": "human chitinase, read-out: hCHT IC50"}, "[2]": {"conditions": "Table 3, 4-parameter logistic fit"}}, "note": "Structures can show the parent of a compound that is named as a salt. Where two headings read alike, the source gives them in different places."}
{"smiles": "CC(=O)Nc1nncs1", "note": "(as salt: salt) [Compound 7, 5-acetamido-1,3,4-thiadiazole]", "values": [{"measurement": "melting point", "result": "276 to 277", "unit": "°C"}]}
{"smiles": "Cn1c(=O)c2[nH]c(Cl)nc2n(C)c1=O", "note": "[8-Chloro-theophylline, 8-chlorotheophylline, reference compound]", "values": [{"measurement": "Hill slope", "setting": "AfChiA1", "result": 1.0}, {"measurement": "IC50", "setting": "hCHT (human chitinase); [1]", "result": "> 2500", "unit": "µM"}]}
{"smiles": "CC(=O)N[C@H]1[C@H](O[C@H]2[C@@H](O)[C@@H](NC(C)=O)[C@H](O[C@H]3[C@H](O)[C@H]4N=C(N(C)C)O[C@H]4[C@@H]3CO)O[C@@H]2CO)O[C@H](CO)[C@@H](O)[C@H]1O", "note": "[Allosamidin, reference compound]", "values": [{"measurement": "Ki", "setting": "hevamine", "result": 3.1, "unit": "µM"}, {"measurement": "Hill slope", "setting": "AfChiA1; Fig. 1, triplicate, four-parameter logistic fit", "result": 0.9}]}
{"smiles": "CC(=O)Nc1nnc(S(N)(=O)=O)s1", "note": "[Compound 1, acetazolamide]", "values": [{"measurement": "IC50", "setting": "hCHT (human chitinase); [1]", "result": "> 1000", "unit": "µM"}]}
{"smiles": "CCC(=O)Nc1nnc(S(N)(=O)=O)s1", "note": "[Compound 2, 5-propylamido-2-sulfamoyl-1,3,4-thiadiazole]", "values": [{"measurement": "Hill slope", "setting": "AfChiA1", "result": 0.71}, {"measurement": "inhibitory activity against AfChiA1 (in words)", "setting": "AfChiA1", "result": "reduction in activity"}, {"measurement": "inhibition at 1000 µM", "setting": "AfChiA1", "result": 76, "unit": "%"}]}
{"smiles": "NS(=O)(=O)c1nnc(NC(=O)c2ccccc2)s1", "note": "[Compound 5, 5-benzylamido-2-sulfamoyl-1,3,4-thiadiazole]", "values": [{"measurement": "Hill slope", "setting": "AfChiA1; [2]", "result": 0.5}, {"measurement": "inhibition at 1000 µM", "setting": "AfChiA1", "result": 51, "unit": "%"}]}
{"smiles": "Nc1nnc(S(N)(=O)=O)s1", "note": "[Compound 6, 5-amino-2-sulfamoyl-1,3,4-thiadiazole monohydrochloride]", "values": [{"measurement": "inhibitory activity against AfChiA1 (in words)", "setting": "AfChiA1", "result": "abolishes inhibitory activity"}]}
{"smiles": "CC(=O)Nc1nncs1", "note": "[Compound 7, 5-acetamido-1,3,4-thiadiazole]", "values": [{"measurement": "inhibitory activity against AfChiA1 (in words)", "setting": "AfChiA1", "result": "abrogate activity"}]}
{"smiles": "CC(=O)Nc1nnc(C)s1", "note": "[Compound 8]", "values": [{"measurement": "inhibitory activity against AfChiA1 (in words)", "setting": "AfChiA1", "result": "abrogate activity"}]}
{"smiles": "CC(=O)Nc1nnc(S)s1", "note": "[Compound 9, 5-Acetamido-2-thiol-1,3,4-thiadiazole]", "values": [{"measurement": "Hill slope", "setting": "AfChiA1; [2]", "result": 1.1}]}
{"smiles": "CC(=O)Nc1nnc(-c2ccccc2)s1", "note": "[Compound 10]", "values": [{"measurement": "Hill slope", "setting": "AfChiA1; [2]", "result": 0.5}]}
{"smiles": "CC(=O)Nc1nnc(C(F)(F)F)s1", "note": "[Compound 11]", "values": [{"measurement": "Hill slope", "setting": "AfChiA1; [2]", "result": 1.1}]}
{"smiles": "CC(=O)Nc1nnc(Br)s1", "note": "[Compound 12]", "values": [{"measurement": "Hill slope", "setting": "AfChiA1; [2]", "result": 0.7}]}
{"smiles": "COc1cccc(CSc2nnc(NC(C)=O)s2)c1", "note": "[Compound 14]", "values": [{"measurement": "inhibition at 1000 µM", "setting": "AfChiA1", "result": 38, "unit": "%"}]}
{"smiles": "O=C(Nc1nnc(-c2ccccc2)s1)C(F)(F)F", "note": "[Compound 15]", "values": [{"measurement": "Hill slope", "setting": "AfChiA1", "result": 1.2}, {"measurement": "inhibition at 1000 µM", "setting": "AfChiA1", "result": 85, "unit": "%"}]}
{"smiles": "O=C(Nc1nnc(N2CCN(c3cccc(Cl)c3)CC2)s1)C(F)(F)F", "note": "[Compound 17]", "values": [{"measurement": "inhibition at 1000 µM", "setting": "AfChiA1", "result": 30, "unit": "%"}]}
{"smiles": "CC(C)Cc1nnc(NC(=O)CCl)s1", "note": "[Compound 20]", "values": [{"measurement": "inhibitory activity against AfChiA1 (in words)", "setting": "AfChiA1", "result": "reduction in activity"}]}
{"smiles": "O=C(CCl)Nc1nnc(C(F)(F)F)s1", "note": "[Compound 21]", "values": [{"measurement": "inhibitory activity against AfChiA1 (in words)", "setting": "AfChiA1", "result": "reduction in activity"}]}
{"smiles": "c1coc(CNc2ncnc3[nH]cnc23)c1", "note": "[Kinetin, reference compound]", "values": [{"measurement": "inhibitory activity against AfChiA1 (in words)", "setting": "AfChiA1", "result": "failed to show any discernable effect"}, {"measurement": "IC50", "setting": "hCHT (human chitinase)", "result": "> 1000", "unit": "µM"}]}
